Reference: patent publication US20180057467A1, “NOVEL TRIAZOLE DERIVATIVES” (BAYER CROPSCIENCE AKTIENGESELLSCHAFT, priority 2015, published 2018)

Tests used:
Venturia inaequalis = test: Example T: in vivo preventive test on Venturia test (apples), comparison vs. known compounds; conditions: rate of application 10 ppm, evaluated 10 days after inoculation
Description: Example T: In Vivo Preventive Test on Venturia Test (Apples) Comparison of Compounds According to the Invention Vs. Known Compounds
The plants are then placed in a greenhouse at approximately 21° C. and a relative atmospheric humidity of approximately 90%.
The test is evaluated 10 days after the inoculation.

Phakopsora pachyrhizi = test: Example U: in vivo preventive test on Phakopsora test (soybeans), comparison vs. known compounds; conditions: rate of application 5 ppm, evaluated 7 days after inoculation
Description: Example U: In Vivo Preventive Test on Phakopsora Test (Soybeans); Comparison of Compounds According to the Invention Vs. Known Compounds
After the spray coating has dried on, the plants are inoculated with an aqueous spore suspension of the causal agent of soybean rust (Phakopsora pachyrhizi) and stay for 24 h without light in an incubation cabinet at approximately 24° C. and a relative atmospheric humidity of 95%.
The plants remain in the incubation cabinet at approximately 24° C. and a relative atmospheric humidity of approximately 80% and a day/night interval of 12 h.
The test is evaluated 7 days after the inoculation.

[1] = LogP by HPLC on reversed phase columns (EEC directive 79/831 Annex V.A8); format: physicochemical; conditions: LogP
Description: [table] If more than one Log P value is available within the same method, all the values are given and separated by “+”. […] Lambda-max-values were determined using UV-spectra from 200 nm to 400 nm and the peak values of the chromatographic signals.

| Structure (SMILES) | Efficacy in % (Venturia inaequalis) | Efficacy in % (Phakopsora pachyrhizi) | chromatographic logP [1] |
| --- | --- | --- | --- |
| OC(Cn1cncn1)(c1ccc(F)cc1F)C1(Oc2c(F)cc(Br)cc2F)CC1 (racemic) [Example I-03] | 93% | 89% | 3.7 |
| OC(Cn1cncn1)(c1ccc(F)cc1)C1(Oc2ccc(Cl)cc2Cl)CC1 (stereo not shown) [DE-A 3522440 Ex. I-44, reference compound] | 0% | 15% |  |
| OC(Cn1cncn1)(c1ccc(F)cc1F)C1(Oc2ccccc2)CC1 (stereo not shown) [DE-A 3522440 Ex. I-134, reference compound] | 76% | 0% |  |
| OC(Cn1cncn1)(c1ccc(F)cc1F)C1(Oc2c(F)cc(Cl)cc2F)CC1 (racemic) [Example I-01] | 98% | 95% | 3.57 |
